A short description of the data set: Contact of acidic solution with human skin. The note with it: solution with a pH of less than 0.5. The class given is in vivo.

Molecules are shown by their SMILES.

Results on one molecule are retold here after patent US20050106292A1, “High moisture, shelf-stable acidulated food products” (priority 2003, published 2005).

In the case of `O=S(=O)(O)O` [sulfuric acid], the “irritation or injury of the hand put into the solution” value is “an irritation would occur”.
